Data: patent publication US6486098B1, “Herbicidal phenoxypropionic acid N-alkyl-N-2-fluorophenyl amide compounds” (Dongbu Hannong Chemical Co. Ltd., priority 1999, dated 2002)

Columns and labels:
ZEAMX (Corn) = assay: Leaf treatment test, corn; format: in vivo, Zea mays L.; conditions: 14 days after treatment
Description: (§1) Seeds of rice, wheat, barley, corn, cotton, barnyard grass, common sorgum, large crabgrass and fall panicum were seeded at a pot with a surface area of 600 cm^2. […] 14 days after the treatment, the degree of damage to the plants was rated in % damage in comparison to the development of untreated control.

SORBI (Common sorgum) = assay: Leaf treatment test, common sorgum; format: in vivo, Andropogon sorghum; conditions: 14 days after treatment
Description: as §1

TRZAW (Wheat) = assay: Leaf treatment test, wheat; format: in vivo, Triticum aestivum L.; conditions: 14 days after treatment
Description: as §1

DIGSA (Large crabgrass) = assay: Leaf treatment test, large crabgrass; format: in vivo, Digitaria Sanguinalis (L.) SCOP; conditions: 14 days after treatment
Description: as §1

ECHCG (Barnyard grass) = assay: Leaf treatment test, barnyard grass; format: in vivo, Echinochloa crus-galli Beauv. var. caudata Kitagawa; conditions: leaf treatment at three leaves, 14 days after treatment
Description: as §1

GOSHI (Cotton) = assay: Leaf treatment test, cotton; format: in vivo, Gossypium; conditions: 14 days after treatment
Description: as §1

ORYSA (Rice) = assay: Leaf treatment test, rice; format: in vivo, Oryza sativa L. cv. Dongjin; conditions: 14 days after treatment
Description: as §1

PANDI (Fall panicum) = assay: Leaf treatment test, fall panicum; format: in vivo, Panicum dichotomiflorum Michx; conditions: 14 days after treatment
Description: as §1

GLXMA (Soy bean) = assay: Leaf treatment test, soy bean; format: in vivo, Glycine max (L.) MERR; conditions: 14 days after treatment

SMILES	degree of damage to the plants (% damage) (ZEAMX (Corn); treated amount 0.025 kg/ha) [%]	degree of damage to the plants (% damage) (ZEAMX (Corn); treated amount 0.1 kg/ha) [%]	degree of damage to the plants (% damage) (ZEAMX (Corn); treated amount 0.4 kg/ha) [%]	degree of damage to the plants (% damage) (SORBI (Common sorgum); treated amount 0.025 kg/ha) [%]	degree of damage to the plants (% damage) (SORBI (Common sorgum); treated amount 0.1 kg/ha) [%]	degree of damage to the plants (% damage) (SORBI (Common sorgum); treated amount 0.4 kg/ha) [%]	degree of damage to the plants (% damage) (TRZAW (Wheat); treated amount 0.025 kg/ha) [%]	degree of damage to the plants (% damage) (TRZAW (Wheat); treated amount 0.1 kg/ha) [%]	degree of damage to the plants (% damage) (TRZAW (Wheat); treated amount 0.4 kg/ha) [%]	degree of damage to the plants (% damage) (DIGSA (Large crabgrass); treated amount 0.025 kg/ha) [%]	degree of damage to the plants (% damage) (DIGSA (Large crabgrass); treated amount 0.1 kg/ha) [%]	degree of damage to the plants (% damage) (DIGSA (Large crabgrass); treated amount 0.4 kg/ha) [%]	degree of damage to the plants (% damage) (ECHCG (Barnyard grass); treated amount 0.025 kg/ha) [%]	degree of damage to the plants (% damage) (ECHCG (Barnyard grass); treated amount 0.1 kg/ha) [%]	degree of damage to the plants (% damage) (ECHCG (Barnyard grass); treated amount 0.4 kg/ha) [%]	degree of damage to the plants (% damage) (GOSHI (Cotton); treated amount 0.025 kg/ha) [%]	degree of damage to the plants (% damage) (GOSHI (Cotton); treated amount 0.1 kg/ha) [%]	degree of damage to the plants (% damage) (GOSHI (Cotton); treated amount 0.4 kg/ha) [%]	degree of damage to the plants (% damage) (ORYSA (Rice); treated amount 0.025 kg/ha) [%]	degree of damage to the plants (% damage) (ORYSA (Rice); treated amount 0.1 kg/ha) [%]	other results
CC(Oc1ccc(Oc2nc3ccc(Cl)cc3o2)cc1)C(=O)N(C)c1ccc(F)cc1F (stereo not drawn) [Compound No. 5, 2-[4-(6-Chloro-2-benzoxazoyloxy)-phenoxy]propionic Acid-N-(2,4-difluorophenyl)-N-methyl Amide]	0	30	100	100	100	100	0	0	0	100	100	100	0	100	100	0	0	0	0	0	degree of damage to the plants (% damage) (ORYSA (Rice); treated amount 0.4 kg/ha): 0%; degree of damage to the plants (% damage) (PANDI (Fall panicum); treated amount 0.025 kg/ha): 40%; degree of damage to the plants (% damage) (PANDI (Fall panicum); treated amount 0.1 kg/ha): 80%; degree of damage to the plants (% damage) (PANDI (Fall panicum); treated amount 0.4 kg/ha): 100%; degree of damage to the plants (% damage) (GLXMA (Soy bean); treated amount 0.025 kg/ha): 0%; degree of damage to the plants (% damage) (GLXMA (Soy bean); treated amount 0.1 kg/ha): 0%; degree of damage to the plants (% damage) (GLXMA (Soy bean); treated amount 0.4 kg/ha): 0%
CC(Oc1ccc(Oc2nc3ccc(Cl)cc3o2)cc1)C(=O)N(C)c1c(F)ccc(F)c1F (stereo not drawn) [Compound No. 6, 2-[4-(6-Chloro-2-benzoxazoyloxy)-phenoxy]propionic Acid-N-methyl-N-(2,3,6-trifluorophenyl)amide]	30	100	100	100	100	100	0	0	0	40	100	100	95	100	100	0	0	0	0	0	degree of damage to the plants (% damage) (ORYSA (Rice); treated amount 0.4 kg/ha): 20%; degree of damage to the plants (% damage) (PANDI (Fall panicum); treated amount 0.025 kg/ha): 40%; degree of damage to the plants (% damage) (PANDI (Fall panicum); treated amount 0.1 kg/ha): 100%; degree of damage to the plants (% damage) (PANDI (Fall panicum); treated amount 0.4 kg/ha): 100%; degree of damage to the plants (% damage) (GLXMA (Soy bean); treated amount 0.025 kg/ha): 0%; degree of damage to the plants (% damage) (GLXMA (Soy bean); treated amount 0.1 kg/ha): 0%; degree of damage to the plants (% damage) (GLXMA (Soy bean); treated amount 0.4 kg/ha): 0%
Cc1ccc(F)c(N(C)C(=O)C(C)Oc2ccc(Oc3nc4ccc(Cl)cc4o3)cc2)c1 (stereo not drawn) [Compound No. 7]	0	0	0	10	95	100	0	0	0	100	100	100	20	40	40	0	0	0	0	0	degree of damage to the plants (% damage) (ORYSA (Rice); treated amount 0.4 kg/ha): 0%; degree of damage to the plants (% damage) (PANDI (Fall panicum); treated amount 0.025 kg/ha): 100%; degree of damage to the plants (% damage) (PANDI (Fall panicum); treated amount 0.1 kg/ha): 100%; degree of damage to the plants (% damage) (PANDI (Fall panicum); treated amount 0.4 kg/ha): 100%; degree of damage to the plants (% damage) (GLXMA (Soy bean); treated amount 0.025 kg/ha): 0%; degree of damage to the plants (% damage) (GLXMA (Soy bean); treated amount 0.1 kg/ha): 0%; degree of damage to the plants (% damage) (GLXMA (Soy bean); treated amount 0.4 kg/ha): 10%
